Assay [1] relates to FPON1 (DNA, i motif, 5'-fluoromonophosphate) TCCCCC. Kind of assay: 19F NMR titration. To be noted: Na+ (50 mM sodium citrate); pH 4.2, 10% D2O, 25 °C; 500 μM FPON1 (125 μM i-motif), 100 μM AMPF reference.
Assay [2] concerns FP-hTeloC (DNA, i motif, 5'-fluoromonophosphate) TAACCCTAACCCTAACCCTAACCC
The assay is described as follows: 19F NMR titration. To be noted: Na+ (50 mM sodium citrate); apparent; pH 4.2, 10% D2O; 212.5 μM FP-hTeloC, 80 μM AMPF reference.

For assay [3], the system named is FP-hTeloC, ssDNA form at pH 6.4 (DNA, single strand, 5'-fluoromonophosphate) TAACCCTAACCCTAACCCTAACCC
The assay is described as follows: 19F NMR chemical shift change. Particulars: Na+ (10 mM sodium cacodylate, 100 mM NaCl); pH 6.4, 10% D2O; i-motif:ssDNA 45:55; ΔδF = −0.02 ppm.

For assay [4], the system named is FP-hTeloC (DNA, i motif, 5'-fluoromonophosphate) TAACCCTAACCCTAACCCTAACCC
The assay is described as follows: 19F NMR melting, i-motif signal. Particulars: Na+ (50 mM citrate buffer); pH 5.5, 10% D2O; 250 μM DNA, two equivalents mitoxantrone (+1.1 °C at 0.3 equivalents).

Assay [5] deals with hTeloC (DNA, i motif) TAACCCTAACCCTAACCCTAACCC
The assay is described as follows: UV/VIS melting, 295 nm. Particulars: Na+ (50 mM citrate buffer); pH 5.5, 10% D2O; destabilised by excess mitoxantrone.

For assay [6], the system named is FP-hTeloC (DNA, i motif, 5'-fluoromonophosphate) TAACCCTAACCCTAACCCTAACCC
Kind of assay: UV/VIS melting, 295 nm. To be noted: Na+ (50 mM citrate buffer); pH 5.5, 10% D2O; 4 μM DNA; destabilised by excess mitoxantrone.

Turning to `C[n+]1ccc(-c2c3nc(c(-c4cc[n+](C)cc4)c4ccc([nH]4)c(-c4cc[n+](C)cc4)c4nc(c(-c5cc[n+](C)cc5)c5ccc2[nH]5)C=C4)C=C3)cc1`, in assay [1], the Kd turned out to be 180 ± 30 µM.

A word on the ΔTm: it is the shift of the melting midpoint relative to a reference. For `O=C1c2c(O)ccc(O)c2C(=O)c2c(NCCNCCO)ccc(NCCNCCO)c21`, in assay [2], the Kd was found to be 70 ± 30 µM. The values for the binding entry in assay [3], in assay [5] and in assay [6] were “weak”, “yes” and “yes”, respectively. Besides, the shift in melting temperature (ΔTm) in assay [4] is −3.2 °C.

The values are drawn from publication PMC7470941 (2020).
